Laboratory results as given in ChEMBL document CHEMBL3832761, “MMV Pathogen Box Bioactivity Data” (2017).
pIC50: −log10 of the molar value. The source made the active and inactive calls. The calls are words filed in the database; no cut-off is given here.

Experiments:
[1] = system: Toxoplasma gondii; assay: AntiToxoplasma gondii activity data Inhibition of plaque forming efficiency (%) Experiment B; type: functional; parameters: concentration or dose not given beside the values
[2] = system: Toxoplasma gondii; assay: AntiToxoplasma gondii activity data 2-day killing assay: inhibition at 10 uM (%) Experiment E; type: functional
[3] = HL60 CC50 (uM) Cytotoxicity; type: functional; details: HL-60
[4] = system: Toxoplasma gondii; assay: AntiToxoplasma gondii activity data Inhibition of plaque forming efficiency (%) Experiment A; type: functional; parameters: concentration or dose not given beside the values
[5] = system: Toxoplasma gondii; assay: AntiToxoplasma gondii activity data 2-day killing assay: inhibition at 10 uM (%) Experiment D; type: functional
[6] = system: Toxoplasma gondii; assay: AntiToxoplasma gondii activity data 2-day killing assay: inhibition at 10 uM (%) Experiment C; type: functional; details: 48 h
[7] = system: Onchocerca volvulus; assay: AntiOnchocerca activity O. volvulus L3 Molting assay: inhibition at 10 uM (%); type: functional
[8] = system: Onchocerca gutturosa; assay: AntiOnchocerca activity O. gutturosa adult males: Motility reduction at 12.5 uM (%); type: functional; parameters: scale not given: the % may be the effect or the level left
[9] = system: HepG2; assay: Cytotoxicity data HepG2 CC20 (uM); type: functional
[10] = system: Brugia pahangi; assay: AntiBrugia pahangi activity Average inhibition motility at 10 uM (%); type: functional
[11] = system: Onchocerca ochengi; assay: AntiOnchocerca activity O. ochengi adult females: final mean inhibition motility at 10 uM on Day 7 (%); type: functional
[12] = system: Onchocerca lienalis; assay: AntiOnchocerca activity O. lienalis microfilariae Motility reduction (%); type: functional; parameters: concentration or dose not given beside the values
[13] = system: Onchocerca gutturosa; assay: AntiOnchocerca activity O. gutturosa adult males: MTT reduction at 12.5 uM (%); type: functional; parameters: scale not given: the % may be the effect or the level left
[14] = system: Onchocerca ochengi; assay: AntiOnchocerca activity O. ochengi adult males: final mean inhibition motility at 10 uM on Day 5 (%); type: functional
[15] = system: Trypanosoma brucei; assay: AntiTrypanosoma brucei activity T. b. brucei IC50 (uM); type: functional, organism-based
[16] = system: Trypanosoma brucei; assay: AntiTrypanosoma brucei activity T. b. rhodesiense IC50 (uM); type: functional, organism-based
[17] = system: Leishmania infantum; assay: AntiLeishmania activity L. infantum (macrophages) IC50 (uM); type: functional, organism-based
[18] = system: MRC5; assay: MRC5 CC50 (uM) Cytotoxicity; type: functional; details: Homo sapiens
[19] = system: Leishmania major; assay: AntiLeishmania activity L. major IC50 (uM); type: functional, organism-based
[20] = system: Trypanosoma cruzi; assay: AntiTrypanosoma cruzi activity IC50 (uM); type: functional, organism-based
[21] = PMM CC50 (uM) Cytotoxicity; type: functional; details: Macrophage
[22] = system: Schistosoma mansoni; assay: AntiSchistosoma mansoni activity Adults IC50 (uM); type: functional, organism-based
[23] = system: Schistosoma mansoni; assay: AntiSchistosoma mansoni activity Newly Transformed Schistosomula: IC50 at 72h (uM); type: functional, organism-based
[24] = system: Schistosoma mansoni; assay: AntiSchistosoma mansoni activity Adults: Effect at 10 uM after 48h; type: functional, organism-based
[25] = system: Schistosoma mansoni; assay: AntiSchistosoma mansoni activity Larva IC50 (uM); type: functional, organism-based
[26] = system: Schistosoma mansoni; assay: AntiSchistosoma mansoni activity Newly Transformed Schistosomula: inhibition at 10 uM at 72h (%); type: functional
[27] = system: Schistosoma mansoni; assay: AntiSchistosoma mansoni activity Juveniles IC50 (uM); type: functional, organism-based
[28] = system: Dengue virus; assay: AntiDengue activity HCI DV4/A549 IC50 (uM); type: functional, organism-based
[29] = system: Dengue virus; assay: AntiDengue activity HCI DV2/A549 IC50 (uM); type: functional, organism-based
[30] = system: Dengue virus; assay: AntiDengue activity HCI DV1/A549 IC50 (uM); type: functional, organism-based
[31] = system: Dengue virus; assay: AntiDengue activity HCI DV3/A549 IC50 (uM); type: functional, organism-based
[32] = system: Dengue virus; assay: AntiDengue activity HCI DV2/Huh7 IC50 (uM); type: functional, organism-based; details: Huh-7
[33] = AntiChikungunya activity HCI CHIKV/Huh7 IC50 (uM); type: functional, Chikungunya virus
[34] = HUH7 CC50 (uM) Cytotoxicity; type: functional; details: Huh-7
[35] = system: HepG2; assay: HepG2 CC50 (uM) Cytotoxicity; type: functional; details: Homo sapiens
[36] = system: A549; assay: A549 CC50 (uM) Cytotoxicity; type: functional; details: Homo sapiens
[37] = system: Toxoplasma gondii; assay: AntiToxoplasma gondii activity data 2-day killing assay: IC50 (uM), Experiment G; type: functional, organism-based
[38] = system: Toxoplasma gondii; assay: AntiToxoplasma gondii activity data 2-day killing assay: IC50 (uM), Experiment F; type: functional, organism-based
[39] = system: Leishmania donovani; assay: AntiLeishmania activity L. donovani (macrophages) IC50 (uM); type: functional, organism-based
[40] = system: Leishmania donovani; assay: AntiLeishmania activity L. donovani (axenic) IC50 (uM); type: functional, organism-based
[41] = system: L6; assay: L6 CC50 (uM) Cytotoxicity; type: functional; details: Rattus norvegicus
[42] = system: Leishmania; assay: AntiLeishmania activity Toxicity on infected PMM (uM); type: functional

CC(C)(C)OC(=O)N1CCC(Cn2nc(-c3cnc4ccccc4c3)c3c(N)ncnc32)CC1
Inhibition [1]: ~75% | Inhibition [2]: 0% | CC50 [3]: > 50 µM | Inhibition [4]: 100% | Inhibition [5]: 36.1% | inhibition at 10 µM [6]: 1.88%

COc1ccc(N(CCc2cccc(C)n2)C(C)=O)cc1
Inhibition [7]: 88% | Activity [8]: 35.7% | CC20 [9]: >80 µM | Inhibition [10]: 6% | CC50 [3]: > 50 µM | Inhibition [11]: 0% | Activity [12]: 13.3% | Activity [13]: 29.6% | Inhibition [14]: 6%

CN1CCN(S(=O)(=O)c2ccc(-c3ccc4c(Nc5ncc(Cl)cn5)ccnc4c3)cc2)CC1
pIC50 [15]: 5.42 | pIC50 [16]: 6.02 | CC20 [9]: 8 µM | pIC50 [17]: 5.60 | CC50 [18]: > 32 µM | pIC50 [19]: 5.07 | pIC50 [20]: 5.42 | CC50 [21]: 4 µM

COc1ccc(-c2nnc3ccc(-c4cccc(C(C)C)c4)cn23)cc1OC
pIC50 [22]: 5.80 | pIC50 [23]: 5.24 | CC20 [9]: 7.5 µM | Activity [24]: Active | CC50 [18]: 18.6 µM | pIC50 [25]: 5.18 | Inhibition [26]: 79% | pIC50 [27]: 5.40

O=C1[C@@H](Oc2ccccc2)[C@@H](c2ccc(Cl)cc2)N1CCn1cnc2c(NCc3ccccc3)ncnc21
pIC50 [28]: 5.70 | pIC50 [29]: 5.22 | pIC50 [30]: 5.52 | pIC50 [31]: 5.40 | pIC50 [32]: 5.52 | pIC50 [33]: 5.22 | CC50 [34]: 10 µM | CC50 [35]: 3 µM | CC50 [36]: 40 µM

CC(Oc1cccc(Cl)c1)C(=O)Nc1ccc2oc(-c3ccncc3)nc2c1 (centres undefined)
Inhibition [1]: 100% | IC50 [37]: no inhibition | Inhibition [2]: 81.6% | CC50 [3]: > 25 µM | Inhibition [4]: 100% | Inhibition [5]: 85.4% | inhibition at 10 µM [6]: 0% | IC50 [38]: no inhibition

O=C(CN1CCOCC1)Nc1ccc2ncnc(Nc3ccc(OCc4cccc(F)c4)c(Cl)c3)c2c1
pIC50 [15]: 5.27 | pIC50 [16]: 5.51 | CC20 [9]: 10.9 µM | pIC50 [17]: < 4.49 | CC50 [18]: 6.4 µM | pIC50 [19]: 4.91 | pIC50 [20]: 6.02 | CC50 [21]: > 32 µM

c1ccc(Oc2ccc(-c3cncc(-c4ccc5[nH]ccc5c4)n3)cc2)cc1
pIC50 [22]: 5.43 | pIC50 [23]: 6.57 | CC20 [9]: 25.7 µM | Activity [24]: Active | CC50 [18]: 20 µM | pIC50 [25]: 5.85 | Inhibition [26]: 100% | pIC50 [27]: 5.68

COC(=O)c1ccc(F)cc1NS(=O)(=O)c1cccc(-c2cnn(Cc3ccccc3)c2)c1
pIC50 [28]: < 4.30 | pIC50 [29]: 5.22 | pIC50 [30]: 5.30 | pIC50 [31]: < 4.30 | pIC50 [32]: 5.00 | pIC50 [33]: 5.00 | CC50 [34]: 20 µM | CC50 [35]: 10 µM | CC50 [36]: > 50 µM

CC(C)(C)OC(=O)N1CCN(c2nccc(-c3ccc(-c4ccc(Cl)cc4)s3)n2)CC1
pIC50 [28]: 5.52 | pIC50 [29]: 5.15 | pIC50 [30]: 5.15 | pIC50 [31]: 5.70 | pIC50 [32]: < 4.30 | pIC50 [33]: 5.00 | CC50 [34]: > 50 µM | CC50 [35]: > 50 µM | CC50 [36]: > 50 µM

Cn1ncc2c(N3CCOCC3)nc(NCCc3c[nH]c4ccccc34)nc21 [TDR79432]
pIC50 [23]: 6.37 | CC20 [9]: 4.63 µM | Activity [24]: Active | Inhibition [26]: 88%

CC(C)(C)C(=O)N(CCCCCCN1C[C@H](O)[C@@H](O)[C@H](O)[C@H]1CO)C1CCCCCC1
pIC50 [28]: 6.70 | pIC50 [29]: 6.22 | pIC50 [30]: 7.15 | pIC50 [31]: 7.10 | pIC50 [32]: 5.70 | pIC50 [33]: < 4.30 | CC50 [34]: > 50 µM | CC50 [35]: > 50 µM | CC50 [36]: > 50 µM

Cc1nc(-c2ccccn2)nc(N2CCC(Cc3ccccc3)C2)c1Cl (centres undefined)
pIC50 [39]: 5.38 | pIC50 [15]: 5.18 | pIC50 [16]: 5.25 | CC20 [9]: 10.2 µM | pIC50 [17]: 5.39 | CC50 [18]: 15.5 µM | pIC50 [40]: 7.52 | pIC50 [19]: 5.05 | pIC50 [20]: 6.01 | CC50 [41]: 15.2 µM | CC50 [21]: 16 µM | Toxicity on infected macrophages [42]: 16.7 µM

COCC(C)NC(=O)CSc1ncnc2sc(-c3ccccc3)cc12 (centres undefined)
CC20 [9]: >80 µM | Activity [24]: inactive | Inhibition [26]: 50%

CC(C)(C)c1ccc(N[C@@H]2CCCC[C@H]2NC(=O)c2ccco2)cc1
Inhibition [7]: 80% | Activity [8]: 50% | CC20 [9]: 35.9 µM | Inhibition [10]: 3% | CC50 [3]: > 50 µM | Inhibition [11]: 0% | Activity [12]: 13.3% | Activity [13]: 37.7% | Inhibition [14]: 1%
